From ChEMBL document CHEMBL1127153, “Synthesis and anti-arthritic activity of a series of 1-aryl-3-dimethylamino-1,4-dihydroisoquinolines” (1993) come the findings set out here.

Structures are written as SMILES.

In general, inhibition in vivo refers to the relative decrease from the control value, in per cent.

Format in all cases: functional
Assay [1] deals with Rattus norvegicus. In words: Antiarthritic activity against rat adjuvant model after peroral administration of 25 mg/Kg of compound, activity expressed as %maximum inhibitory effect on injected paw depth.
Assay [2] deals with Rattus norvegicus. The experiment in a line: The compound was examined for cell accumulation in the rat by Arthus reaction after peroral administration at 25 mg/Kg, activity expressed as percent inhibition. The conditions noted are these: po.
Assay [3] relates to Rattus norvegicus. In words: The compound was examined for cell accumulation in the rat by polyvinyl sponge model after peroral administration at 25 mg/Kg, activity expressed as percent inhibition. The following applies: po.
Assay [4] concerns Rattus norvegicus. The experiment in a line: The compound was examined for cell accumulation in the rat by Arthus reaction after peroral administration at 12.5mg/Kg, activity expressed as percent inhibition. The following applies: po.
In assay [5] the test system is Rattus norvegicus. The experiment in a line: Antiarthritic activity against rat adjuvant model after peroral administration of 25 mg/Kg of compound, activity expressed as %maximum inhibitory effect on arthritis score.
Assay [6] deals with Rattus norvegicus. The experiment in a line: The compound was examined for cell accumulation in the rat by pleural exudate model after peroral administration at 12 mg/Kg, activity expressed as percent inhibition. The following applies: po.
Assay [7] has as its system Rattus norvegicus. The experiment in a line: The compound was examined for cell accumulation in the rat by polyvinyl sponge model after peroral administration at 10 mg/Kg, activity expressed as percent inhibition. The following applies: po.
Assay [8] concerns Rattus norvegicus. The experiment in a line: The compound was examined for cell accumulation in the rat by Arthus reaction after peroral administration at 50 mg/Kg, activity expressed as percent inhibition. The following applies: po.
For assay [9], the system named is Rattus norvegicus. The experiment in a line: Antiarthritic activity against rat adjuvant model after peroral administration of 12.5 mg/Kg of compound, activity expressed as %maximum inhibitory effect on arthritis score.
Assay [10] deals with Rattus norvegicus. The experiment in a line: Antiarthritic activity against rat adjuvant model after peroral administration of 12.5 mg/Kg of compound, activity expressed as %maximum inhibitory effect on injected paw depth.
Assay [11] has as its system Rattus norvegicus. The experiment in a line: The compound was examined for cell accumulation in the rat by pleural exudate model after peroral administration at 6 mg/Kg, activity expressed as percent inhibition. The conditions noted are these: po.
The subject of assay [12] is Rattus norvegicus. The experiment in a line: Antiarthritic activity against rat adjuvant model after peroral administration of 25 mg/Kg of compound: activity expressed as %maximum inhibitory effect on arthritis score.
The subject of assay [13] is Rattus norvegicus. The experiment in a line: Antiarthritic activity against rat adjuvant model after peroral administration of 12.5 mg/Kg of compound: activity expressed as %maximum inhibitory effect on arthritis score.
Assay [14] concerns Rattus norvegicus. In words: The compound was examined for cell accumulation in the rat by pleural exudate model after peroral administration at 12.5 mg/Kg, activity expressed as percent inhibition. The following applies: po.
For assay [15], the system named is Rattus norvegicus. In words: The compound was examined for cell accumulation in the rat by pleural exudate model after peroral administration at 25 mg/Kg, activity expressed as percent inhibition. The conditions noted are these: po.
Assay [16] deals with Rattus norvegicus. The experiment in a line: Antiarthritic activity against rat adjuvant model after peroral administration of 5 mg/Kg of compound, activity expressed as %maximum inhibitory effect on injected paw depth.
Assay [17] relates to Rattus norvegicus. In words: Antiarthritic activity against rat adjuvant model after peroral administration of 5 mg/Kg of compound, activity expressed as %maximum inhibitory effect on arthritis score.
Assay [18] relates to Rattus norvegicus. In words: The compound was examined for cell accumulation in the rat by pleural exudate model after oral administration at 25 mg/Kg, activity expressed as percent inhibition.
Assay [19] concerns Rattus norvegicus. In words: The compound was examined for cell accumulation in the rat by polyvinyl sponge model after peroral administration at 12.5 mg/Kg, activity expressed as percent inhibition. The conditions noted are these: po.
Assay [20] relates to Rattus norvegicus. The experiment in a line: The compound was examined for cell accumulation in the rat by Arthus reaction after peroral administration at 6.25 mg/Kg, activity expressed as percent inhibition. The following applies: po.
Assay [21] deals with Rattus norvegicus. In words: Antiarthritic activity against rat adjuvant model after peroral administration of 10 mg/Kg of compound, activity expressed as %maximum inhibitory effect on injected paw depth.
Assay [22] concerns Rattus norvegicus. The experiment in a line: The compound was examined for cell accumulation in the rat by Arthus reaction after peroral administration at 12.5 mg/Kg, activity expressed as percent inhibition. The conditions noted are these: po.
Assay [23] has as its system Rattus norvegicus. The experiment in a line: The compound was examined for cell accumulation in the rat by pleural exudate model after peroral administration at 3 mg/Kg, activity expressed as percent inhibition. The following applies: po.
Assay [24] has as its system Rattus norvegicus. The experiment in a line: The compound was examined for cell accumulation in the rat by polyvinyl sponge model after peroral administration at 5 mg/Kg, activity expressed as percent inhibition. The conditions noted are these: po.
In assay [25] the test system is Rattus norvegicus. In words: Antiarthritic activity against rat adjuvant model after peroral administration of 10 mg/Kg of compound, activity expressed as %maximum inhibitory effect on arthritis score.
The subject of assay [26] is Rattus norvegicus. The experiment in a line: Antiarthritic activity against rat adjuvant model after peroral administration of 6 mg/kg of compound, activity expressed as %maximum inhibitory effect on injected paw depth. The following applies: route oral.
In assay [27] the test system is Rattus norvegicus. In words: Antiarthritic activity against rat adjuvant model after peroral administration of 6 mg/Kg of compound, activity expressed as %maximum inhibitory effect on arthritis score.
Assay [28] has as its system Rattus norvegicus. The experiment in a line: Antiarthritic activity against rat adjuvant model after intravenous administration of 25 mg/Kg of compound, activity expressed as %maximum inhibitory effect on arthritis score.
Assay [29] deals with Rattus norvegicus. In words: Antiarthritic activity against rat adjuvant model after intravenous administration of 25 mg/Kg of compound, activity expressed as %maximum inhibitory effect on injected paw depth.
Assay [30] relates to Rattus norvegicus. The experiment in a line: Antiarthritic activity against rat adjuvant model after intravenous administration of 50 mg/Kg of compound, activity expressed as %maximum inhibitory effect on arthritis score.
Assay [31] deals with Rattus norvegicus. The experiment in a line: Antiarthritic activity against rat adjuvant model after peroral administration of 50 mg/Kg of compound, activity expressed as %maximum inhibitory effect on injected paw depth.

With `CN(C)C1=NC(c2ccccc2F)c2ccccc2C1.Cl` (stereo not drawn), the results for the Max inhibitory effect in the assay on Rattus norvegicus [1] and with Rattus norvegicus [5] were 13% and 37%, respectively. In addition, the inhibition in vivo at 25 mg/kg in the assay with Rattus norvegicus [2] came out at 44%; in the assay with Rattus norvegicus [3], 24%. This compound also yielded an inhibition in vivo at 12.5 mg/kg in the assay on Rattus norvegicus [4] of 28%. For the same compound, the inhibition in vivo at 12 mg/kg in the assay with Rattus norvegicus [6] came to 33%. In addition, in the assay with Rattus norvegicus [7], 10 mg/kg produced 12% inhibition in vivo. In addition, at 50 mg/kg the inhibition in vivo in the assay on Rattus norvegicus [8] was 55%.
With `Cl.Clc1ccc(C2N=C(N3CCOCC3)Cc3ccccc32)cc1` (stereo not drawn), the Max inhibitory effect with Rattus norvegicus [1] came out at 7%; in the assay on Rattus norvegicus [5], 5%.
For the compound `Cl.NC1=NC(c2ccc(Cl)cc2)c2ccccc2C1` (stereo not drawn), the results for the Max inhibitory effect in the assay on Rattus norvegicus [1] and in the assay on Rattus norvegicus [5] were 0% and -3%, respectively.
In the case of `CN(C)C1=NC(c2ccc([N+](=O)[O-])cc2)c2ccccc2C1.Cl` (stereo not drawn), the Max inhibitory effect in the assay with Rattus norvegicus [9] stood at 30%; with Rattus norvegicus [10], 33%.
Regarding `CN(C)C1=NC(c2ccccc2Cl)c2ccccc2C1.Cl` (stereo not drawn), the Max inhibitory effect in the assay with Rattus norvegicus [1] stood at 30%; in the assay on Rattus norvegicus [12] it was 36%; in the assay with Rattus norvegicus [13] it was 10%; in the assay on Rattus norvegicus [10], 12%. In the assay with Rattus norvegicus [11], this compound registered an inhibition in vivo at 6 mg/kg of 27%. The inhibition in vivo at 25 mg/kg came out at 19% in the assay with Rattus norvegicus [2], 19% in the assay with Rattus norvegicus [3] and 48% in the assay on Rattus norvegicus [15]. In addition, the inhibition in vivo at 12.5 mg/kg in the assay with Rattus norvegicus [14] was 28%. This compound also gave an inhibition in vivo at 50 mg/kg with Rattus norvegicus [8] of 34%.
Regarding `CN(C)C1=NC(c2ccccc2)c2ccccc2C1.Cl` (stereo not drawn), the Max inhibitory effect with Rattus norvegicus [1] is on record as -6%; in the assay with Rattus norvegicus [5], 13%.
`CN(C)C1=NC(c2ccc(Cl)cc2)c2ccccc2C1.Cl` (stereo not drawn): the Max inhibitory effect stood at 30% with Rattus norvegicus [16], 18% with Rattus norvegicus [17], 44% in the assay on Rattus norvegicus [9] and 80% with Rattus norvegicus [10]. The compound further returned an inhibition in vivo at 6 mg/kg in the assay with Rattus norvegicus [11] of 19%. Moreover, the inhibition in vivo at 25 mg/kg in the assay with Rattus norvegicus [3] turned out to be 30%; with Rattus norvegicus [18], 28%. Moreover, the figures for the inhibition in vivo at 12.5 mg/kg with Rattus norvegicus [14] and in the assay on Rattus norvegicus [19] were 21% and 15%, respectively.
Consider `CN(C)C1=NC(c2cccc(Cl)c2)c2ccccc2C1.Cl` (stereo not drawn), for which the Max inhibitory effect with Rattus norvegicus [1] came out at 84%; with Rattus norvegicus [5], 53%; in the assay with Rattus norvegicus [21], 32%; in the assay with Rattus norvegicus [25], 29%. The compound also gave an inhibition in vivo at 6 mg/kg with Rattus norvegicus [11] of 41%. In the assay with Rattus norvegicus [2], 25 mg/kg produced 29% inhibition in vivo. Moreover, the inhibition in vivo at 12.5 mg/kg was 41% with Rattus norvegicus [14] and 30% in the assay with Rattus norvegicus [22]. The compound also came in with an inhibition in vivo at 6.25 mg/kg with Rattus norvegicus [20] of 31%. For the same compound, testing at 3 mg/kg in the assay on Rattus norvegicus [23] gave an inhibition in vivo of 36%. In the assay on Rattus norvegicus [7], this compound returned an inhibition in vivo at 10 mg/kg of 35%. Moreover, testing at 5 mg/kg in the assay with Rattus norvegicus [24] gave an inhibition in vivo of 8%. In the assay on Rattus norvegicus [8], this compound had an inhibition in vivo at 50 mg/kg of 42%.
On to `Cl.Clc1ccc(C2N=C(NCc3ccccc3)Cc3ccccc32)cc1` (stereo not drawn), for which the results for the Max inhibitory effect in the assay with Rattus norvegicus [1] and in the assay on Rattus norvegicus [5] were 10% and -7%, respectively.
For the compound `CN(C)C1=NC(c2ccc(Cl)cc2)c2cc(Cl)ccc2C1.Cl` (stereo not drawn), the Max inhibitory effect with Rattus norvegicus [1] is 86%; with Rattus norvegicus [5], 54%; in the assay with Rattus norvegicus [26], 36%; in the assay with Rattus norvegicus [27], 34%.
Take `COc1ccc2c(c1)CC(N(C)C)=NC2c1ccc(Cl)cc1.Cl` (stereo not drawn): the Max inhibitory effect is recorded as 0% with Rattus norvegicus [1] and 11% with Rattus norvegicus [5].
The matching figures for `CN(C)C1=NC(c2ccc(N)cc2)c2ccccc2C1.Cl` (stereo not drawn): 6% and 9%.
As for `CN(C)C1=NC(c2ccc(Cl)cc2Cl)c2ccccc2C1.Cl` (stereo not drawn), the Max inhibitory effect in the assay with Rattus norvegicus [9] was found to be 15%; in the assay with Rattus norvegicus [10], 44%.
Consider `Br.CN(C)C1=NC(c2ccc(Cl)cc2)c2ccc(O)cc2C1` (stereo not drawn), for which the Max inhibitory effect with Rattus norvegicus [28] is given as 44%; with Rattus norvegicus [29], 46%; in the assay on Rattus norvegicus [30], 16%; in the assay with Rattus norvegicus [31], 5%. In addition, the inhibition in vivo at 25 mg/kg with Rattus norvegicus [15] is 21%. In the assay on Rattus norvegicus [8], this compound displayed an inhibition in vivo at 50 mg/kg of 18%.
As to `CN(C)C1=NC(c2ccc(Cl)cc2)c2ccccc2C1` (stereo not drawn), the figures for the Max inhibitory effect in the assay with Rattus norvegicus [1] and in the assay on Rattus norvegicus [5] were -1% and 29%, respectively.
